In data set [1] the test system is SNB-19, U-373 and AsPC-1 cell lines. Put plainly: Optical microscopy analysis (IncuCyte ZOOM) of morphological/cytopathic effects. The data set is classed as cell-based, human. As to conditions: 4 μM LDV and/or H-1PV MOI 1 (SNB-19) or 100 (U-373, AsPC-1); 4 days (96 h) post-treatment. On the procedure: Two glioblastoma cell lines (SNB-19 and U-373) and a pancreatic cell line (AsPC-1) displaying different susceptibility to H-1 PV infection were treated (or not) with increasing amounts of H-1PV (MOI, pfu/cell) in the presence or absence of 4 μM LDV.
The cancer cell lines indicated in FIG. 3 were plated at the same density. After 24 h, cells were infected (or not) with H-1 PV used at the MOI (pfu/cell) of 1 (SNB-19), or 100 (U-373 and AsPC-1) in combination (or not) with 4 μM LDV. Light microscopy images were acquired using the IncuCyte ZOOM™ live cell imaging system (Essen BioScience, MI USA) at 96 h after treatment.

The next data set has as its system AsPC-1 cells. Put plainly: Real-time detection of cell viability and proliferation (xCELLIgence). The data set is classed as cell-based, human. As to conditions: LDV (1 and 4 μM) and/or H-1PV (up to MOI 100 pfu/cell), monitored for 150 hours. On the procedure:
(§1) Human cancer cells were seeded into a 96-well E-plate (ACEA Biosciences, San Diego, CA, USA) at a density of 4000 cells/well. After 24 h, cells were infected or not with H-1PV and grown in the presence or absence of LDV. Growth of mock treated cells and virus infected cells was monitored in real-time every 30 min, for 6 days using the xCELLIgence System (ACEA). Cell proliferation was expressed as normalized cell index (CI), a parameter directly proportional to the number of attached cells per well and, therefore, strictly correlated with cell proliferation and viability. The growth curves represent the averages of the results of at least three replicates
(§2) The xCELLIgence system allows the monitoring in real time of cell proliferation and viability. This system was used to confirm the anti-cancer effect of H-1PV/LDV co-treatment. Three cancer cell lines were used for these experiments, namely glioma cell lines […], and pancreatic carcinoma cell line AsPC-1. Cells were treated (or not) with H-1PV in the presence or absence of LDV. Cell proliferation was monitored every 30 min for a total of 150 hours.
(§3) Cancer cells were seeded in a 96-well E-plate. […] Cell proliferation was monitored in real-time using the xCELLIgence system. The values in FIG. 4 are expressed as normalized cell index and plotted against time. […]

Another data set has as its system SNB-19 cells. The data set is described as above. The data set is classed as cell-based, human. As to conditions: LDV and/or H-1PV, monitored every 30 min for 150 hours. On the procedure: as §1, §2, §3
Data set [2] concerns SNB-19 (glioma), AsPC-1 (pancreatic carcinoma), and PC3 (prostate cancer) cell lines. Nature of the data set: LDH assay of treatment-induced cell lysis (Example 4). The format is cell-based, human. The conditions noted are these: H-1PV and/or increasing concentrations of LDV; 120 h (SNB19) or 96 h (AsPC1, PC3). On the procedure:
(§4) In an lactate dehydrogenase assay (LDH assay) LDH released from a cell, e.g. due to cell lysis, oxidizes lactate to generate NADH, which then in turn reacts with a colorimetric substrate to generate a quantifiable colour change, which is directly correlated to the amount of LDH released and can, as such, used as a measure of cell lysis.
(§5) Cancer cell lines were seeded at a density of 3,000 (U-251, BxPC-3, Panc-1, DU-145, A-549, HOP-62 and Caki-1) or 4,000 (SNB-19, AsPC-1, PC3 and U-373) cells/well in 96-well plates in 50 μl of their respective culture medium supplemented with 10% heat inactivated FBS. After 24 h, 50 μl of FBS-free medium with or without H-1PV and/or Ledipasvir (LDV; Selleck Chemicals LLC, Houston, TX, USA) was added. Cells were incubated for 3-5 days and then subjected to […] LDH assay (CytoTox 96 non-radioactive cytotoxicity assay, Promega Madison, WI, USA), according to the manufacturer's instructions. For each condition tested, six replicates were prepared of which three were used for calculating the total lysis in the presence of detergent as previously described (25).
To further confirm the results shown in Examples 1-3, the oncolytic activity of H-1PV/LDV combination, was analysed by LDH assays. […]

The next data set has as its system U-373 glioma cells. Put plainly: LDH assay of treatment-induced cell lysis (Example 5). The format is cell-based, human. As to conditions: 4 μM LDV and/or increasing viral MOIs, 96 h. On the procedure:
as §4, §5
U-373 glioma cells treated (or not) with 4 μM LDV were infected (or not) with increasing viral MOIs (pfu/cell) and treatment-induced cell lysis was assessed by LDH assay.
U373 glioma cells, were grown for 24 h before being treated for 96 h as indicated. […]

Data set [3] relates to U-251, BxPC-3, Panc-1, Du-145, A-549, Hop-62 and Caki-1 cancer cell lines. Nature of the data set: LDH assay of treatment-induced cell lysis (Example 6). The conditions noted are these: LDV, H-1PV or both, 96 h, seven cancer cell lines. The format is cell-based, human. The procedure:
as §4, §5
H-1 PV can target and kill a broad spectrum of cancer cell lines from different tumour entities. […] Treatment-induced cell lysis was analysed by LDH assay. […]

The subject of data set [4] is SNB-19 and U-373 glioma cells. As to conditions: drug 4-0.156 μM in combination with H-1PV MOI 1 pfu/cell, 72 h; compared to cells infected only with H-1PV. On the procedure:
The screening was performed with the Agilent BioCel automated workstation housed in an Ermaflux L2 biosafety cabinet (equipped with charcoal filters to trap gases). The glioma cell lines SNB-19 and U-373 were used for the screening. Cells were seeded with the BRAVO pipettor in 384 well cell culture microplate at 15% confluence in medium supplemented with 10% FBS and penicillin/streptomycin. After overnight incubation half of the plates was infected with wild-type H-1 PV at MOI of 1 plaque forming unit (pfu)/cell, the other half kept untreated. All cells were then treated with 5 concentrations of each of the 1,443 compounds (5-point dose curve incorporating a […] dilution step in duplicates, range 4-0.156 μM). […] PrestoBlue® is a cell viability indicator by using the reducing power of living cells to quantitatively measure the proliferation of cells. […] Conversion is proportional to the number of metabolically active cells and therefore can be measured quantitatively. Quantitation of fluorescent signal intensity of the cell culture supernatant was carried out using the HTS-ready Berthold MITHRAS LB 940 fluorescent plate reader at excitation and emission wavelengths of 569/586 nm (reduced resazurin form resorufin). […]

The subject of data set [5] is different cancer cell lines of different origins. The conditions noted are these: in vitro, in combination with H-1PV; cited from earlier work.
In data set [6] the test system is xenograft rat model of human pancreatic carcinoma. The conditions noted are these: in vivo, in combination with H-1PV; cited from earlier work.

On to `COC(=O)N[C@H](C(=O)N1CC2(CC2)C[C@H]1c1ncc(-c2ccc3c(c2)C(F)(F)c2cc(-c4ccc5nc([C@@H]6[C@H]7CC[C@H](C7)N6C(=O)[C@@H](NC(=O)OC)C(C)C)[nH]c5c4)ccc2-3)[nH]1)C(C)C` [LDV, methyl N-[(2S)-1-[(6S)-6-[5-[9,9-difluoro-7-[2-[(1R,3S,4S)-2-[(2S)-2-(methoxycarbonylamino)-3-methylbutanoyl]-2-azabicyclo[2.2.1]heptan-3-yl]-3H-benzimidazol-5-yl]fluoren-2-yl]-1H-imidazol-2-yl]-5-azaspiro[2.4]heptan-5-yl]-3-methyl-1-oxobutan-2-yl]carbamate], for which, in data set [1], the “cytotoxic / cytopathic effects and morphological changes” value was “did not induce any evident cytotoxic effects”. The “cell proliferation and viability (normalized cell index)” value in the data set on AsPC-1 cells and in the data set with SNB-19 cells was “did not affect cell proliferation” each time. In addition, the “treatment-induced cell lysis (LDH)” value in data set [2] is given as “did not induce cell lysis”; with U-373 glioma cells, “did not induce cell lysis”; in [3], “did not induced cell lysis”.
As for `CN(C)CC[C@H](CSc1ccccc1)Nc1ccc(S(=O)(=O)NC(=O)c2ccc(N3CCN(Cc4ccccc4-c4ccc(Cl)cc4)CC3)cc2)cc1[N+](=O)[O-]` [ABT-737], in data set [4], the “interaction with H-1PV: fold increase in H-1PV cytotoxicity (PrestoBlue)” value is recorded as “synergized with H-1PV”. Moreover, the “enhancement of H-1PV oncotoxicity” value in data set [5] and in data set [6] was “enhance H-1PV oncotoxicity in a synergistic manner” throughout.
Take `Oc1ccc(O)cc1` [Hydroquinone]: the “interaction with H-1PV: fold increase in H-1PV cytotoxicity (PrestoBlue)” value in data set [4] is “did not interact with H-1 PV”.
